Earlier results on 3 substances are cited in article PMC3480965 (Molecular pharmaceutics, 2012).

The target in data set [1] is melanocortin-1 (MC1) receptor (Mus musculus, UniProt Q01727). The settings on record: read-out: MC1 receptor binding affinity (IC50); B16/F1 melanoma cells.
The subject of the next data set is melanoma. The settings on record: in vivo, 2 h.

Chain of melanocortin-1 (MC1) receptor (Q01727 whole entry): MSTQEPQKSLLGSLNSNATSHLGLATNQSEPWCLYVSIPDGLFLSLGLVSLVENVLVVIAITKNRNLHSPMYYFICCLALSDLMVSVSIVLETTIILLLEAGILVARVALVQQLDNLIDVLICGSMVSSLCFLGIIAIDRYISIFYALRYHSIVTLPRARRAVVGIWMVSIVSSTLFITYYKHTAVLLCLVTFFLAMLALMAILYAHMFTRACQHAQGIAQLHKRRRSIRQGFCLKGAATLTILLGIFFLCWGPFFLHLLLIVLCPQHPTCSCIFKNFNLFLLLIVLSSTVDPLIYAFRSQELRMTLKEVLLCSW

As usually defined, the IC50 is the concentration that gives 50% inhibition. As to “1,4,7,10-tetraazacyclononane-1,4,7,10-tetraacetic acid-GGNle-CycMSHhex (GGXDHFRWK; X3 = norleucine (Nle); D-Phe6; lactam bridge between Asp4 and Lys9 side chains (cyclic); C-terminal amide; 64Cu-labelled for biod) [DOTA-GGNle-CycMSHhex]”, the IC50 in data set [1] is 2.1 nM.

For the substance “Ac-Nle-Asp-His-D-Phe-Arg-Trp-Gly-Lys(^64Cu-DOTA)-NH2 [^64Cu-DOTA-NAPamide]”, in the data set with melanoma, the Liver uptake is given as 11.0 % ID/g and the Melanoma uptake is on record as 4.63 ± 0.45 % ID/g.

For the substance “^64Cu-DOTA-Re-[Cys[3],[4],[10], D-Phe^7, Arg^11]a-MSH3–13 [^64Cu-DOTA-ReCCMSH(Arg^11)]”, in the data set on melanoma, the Liver uptake is 7.3 % ID/g and the Melanoma uptake is recorded as 8.80 ± 1.70 % ID/g.
